These results are taken from paper PMC13327620, “A Deep‐Red‐Absorbing Osmium(II) Complex as a Photosensitizer for Photodynamic Therapy Inducing Immunogenic Cell Death” (Angewandte Chemie (International Ed. in English), 2026).

Data set [1] deals with MCA205 cells. Kind of data set: In vivo vaccination and rechallenge, MCA205 model. More on the design: species or system C57BL/6 mice. The settings on record: vaccination with MCA205 cells pre-treated with 500 µM Cisplatin or 1400 µM Oxaliplatin (dark), 5.5 µM Ce6 or 3 µM Os2 (740 nm). An excerpt: Next, we used these concentrations in the MCA205 vaccination and rechallenge model on C57BL/6 mice to test the in vivo ICD effect of Os2, following the same experimental procedure as that used for CT26‐luc cells in Figure 5A. […] Body weights remained stable across all groups throughout the study, further supporting the good in vivo biosafety of Os2.
The BALB/c female mice were randomly divided into 4 groups with each group containing 5 mice, which were named as Control group, Cisplatin group, Ce6 group and Os2 group. CT26-luc cells wer e treat ed in vitro with 600 µM Cisplatin in the dark, 6.5 µM Ce6 or 1.8 µM Os2 upon 740 nm LED light irradiation (60 min, 12.6 J cm-2) following the methods described above. Subsequently, treated CT26-luc cells (3×10^5 cells in 100 µ L sterile PBS) or 100 µ L sterile PB S were injected subcutaneously into the left flank of each mouse. One week later, mice were r echalleng ed by injection with untreated CT26- luc cells (1×10^6 cells in 100 µL sterile PBS). The mice were monitored by an in vivo imaging system (Biospace Lab, Photon Imager Optima) and the tumor volume was calculated with the following equation: tumor volume = width 2 × length × […]
In vivo vaccination study on MCA205 cells
The C57BL/6 mice were randomly divided into 5 groups with each group containing 10 mice, whi ch w ere nam ed as Control group, Cisplatin group, Oxaliplatin group, Ce6 group and Os2 group. M CA205 cells were treated in vitro with 500 µM Cisplatin o r 1400 µM Oxaliplatin in the dark, 5.5 µM Ce6 or 3 µM Os2 upon 740 nm LED light irradiation (60 min, 12.6 J cm-2) following the methods described above. Subsequently, treated MCA205 cells (3 ×10^5 cells in 100 µ L sterile PBS) or 100 µ L sterile PBS were injected subcutaneously into the left flank of each mouse. One week later, mice were rechallenged by injection with untreated MCA205 cells (1×10^6 cells in 100 µ L sterile PBS). The tumor volume was calculated with the following equation: tumor volume =

The test system of data set [2] is CT26‐luc cells. Kind of data set: Annexin V-FITC/propidium iodide (AV/PI) cell viability assay by flow cytometry. In kind it is cell-based, mouse. The note with it: in the dark, 24 h. As to the method: Following the gold standard assessment method, the Annexin V‐FITC/propidium iodide (AV/PI) dual staining assay was conducted to screen the suitable concentrations of each drug (Figure S25). In addition, to better monitor tumor growth in vivo, luciferase‐labelled tumor cells (CT26‐luc) were used for in vivo experiments by bioluminescence imaging. […] As the concentration of each drug was increased, the proportion of live cells decreased, while the percentage of dying cells (Q3, Annexin V^+/PI^−) and dead cells (Q2, Annexin V^+/PI^+ and Q1, Annexin V^−/PI^+) increased. The concentrations at which approximately 5% of the cells remained alive (IC95) were 600 µM for Cisplatin in the dark, 1.8 µM for Os2, and 6.5 µM for Ce6 upon 740 nm LED light irradiation (60 min, 12.6 J cm^−2). These concentrations were selected for the subsequent in vivo vaccination studies. […]
incubated for 24 h. Cells were then treat ed with the determined IC50 of complexes and irradiated or kept in the dark. Supernatants were collected 12 h post-t reatm ent, and the extracellular ATP content was measured with Adenosine 5′ -triphosphate (ATP) Bioluminescent Assay Kit (Sigma-Aldrich) according tomanufacturer ’s ins truction. […]
(§1) 556419) and PI (BD Biosciences, Catalog no.51- 66211E). CT26- luc cells were analyzed by flow cytometry (Beckm an Coulter Life Sciences, CytoFLEX LX Flow Cytometer). […]
For orientation: Flow cytometry measures light scatter and fluorescence of single cells or particles in a stream.

Data set [3] concerns MCA205 cells. The description is as above. Type of data set: cell-based, mouse. The note with it: MCA205, in the dark.
Description: Regarding the optimal dose of each drug for in vivo vaccination, we continued to follow the same standards as with CT26‐luc cells, using the concentration of each drug that results in approximately 5% of live cells as the in vivo dose. The testing method remained the same, using the AV/PI dual staining assay. Negative controls still included the untreated group (direct injection of PBS solution) and the non‐ICD inducer Cisplatin. Based on the in vitro HMGB‐1 release results, Ce6 was maintained as the positive control. For a more comprehensive comparison, we also added the platinum‐based chemotherapeutic agent Oxaliplatin as a non‐PS ICD inducer, serving as an additional positive control.
As the drug concentration increased, the cells gradually shifted to dying (Q3, Annexin V^+/PI^−) or dead (Q2, Annexin V^+/PI^+ and Q1, Annexin V^−/PI^+) state. For MCA205 cells, the concentrations corresponding to approximately 5% cell survival for each drug were 500 µM Cisplatin and 1400 µM Oxaliplatin in the dark, 5.5 µM Ce6 and 3 µM Os2 under 740 nm LED light illumination. […]
incubated for 24 h. Cells were then treat ed with the determined IC50 of complexes and irradiated or kept in the dark. Supernatants were collected 12 h post-t reatm ent, and the extracellular ATP content was measured with Adenosine 5′ -triphosphate (ATP) Bioluminescent Assay Kit (Sigma-Aldrich) according tomanufacturer ’s ins truction.
Cell viability assay f o r in vivo by flow cytometry
CT26-luc or MCA205 cells were seeded in 6-well plates at a density of 1 ×1 05 cells per well and cultured for 24 h at 37 °C with 5% CO 2. The medium was replaced by various concentrations of the compound dilutions in fresh medium.For Ce6 and Os2, after 4 h incubation in the dark, the medium w as r efr eshed and the plates wer e illuminated with a LUMOS-BIO photoreactor (Atlas Photonics), followed by an additional 20- h incubation in the dark. […]
as §1

Data set [4] concerns mouse fibrosarcoma (MCA205) cells. Kind of data set: Resazurin cell viability assay, phototoxicity. In kind it is cell-based. The note with it: MCA-205, light or radiation study, 1 h, MCA205, 740 nm, 60 min, 12.60 J/cm2. As to the method: (100 U ml−1), streptomycin (100 U ml−1), and 1% L-glutamine. The murine fibrosarcom a (MCA205) cells were cultured in RPMI 1640 medium with 10% fetal bovine serum (FBS), penicillin (100 U ml−1), streptomycin (100 U ml−1), and 1% L-glutamine. All cells were incubated at 37 °C in a humidified atmosphere with 5 % CO2.
(§2) Normoxia. The in vitro viability of cells exposed to the complexes was determined using a resazurin assay. C ells were seeded in 96-well plates at densities of 4,000 cells/well for CT26, MC A205 and U-87 MG cells, and 8,000 cells/well for MRC-5 and NIH/3T3 cells. A fter 24 h of growth at 37 °C wit h 5% CO2, the medium was replaced with fresh medium containing various concentrations of the compounds . Following a 4- h incubation in the dark, the medium was refres hed , and the plates were exposed to irradiation usinga LUM OS -BIO photoreactor (At las Photonics).N on- ir rad iated plates were similarly refr eshed with medium and kept in the dark for the same duration. After a 40- h r ecov ery period, a f reshly pr epar ed resazurin solution (0.2 mg/mL) was added to each well, and the plates were left in the dark for 4 h before analysis on a B i o Te k Cytation 5 Cell Imaging Multimode Reader (Agil ent Technologies). […]
On the technique in general: The colour change of resazurin is a common sign of viable cells or microbes.

Data set [5] is described as follows: Photophysical properties (fluorescence and singlet oxygen quantum yield, lifetime). Type of data set: physicochemical. The settings on record: in ethanol. As to the method: System Inc, Phoenixville, PA, USA). The excitation beam is separated by a SPEX dual […]
network monochromator (1200 lines / mm blazed at 330 nm). The fluorescence was […]
measured by the UV-Visible detector via the SPEX dual network emission […]
monochromator (1200 lines / mm blazed at 500 nm). Singlet oxygen production was […]
measured with an infrared detector InGaAs (800 - 1550 nm) via the dual network […]
emission monochromator SPEX (600 lines / mm blazed at 1 µm).
All spectra were measured using 4-sided quartz cells. The absorption values of the […]
references and samples at the excitation wavelength were adjusted to 0.2. All emission […]
spectra were normalized to the same absorbance for the purpose of comparison.
[Ru(bpy)3]2+ in acetonitrile was chosen as standard for both fluorescence and singlet […]
oxygen quantum yield determination. Fluorescence quantum yield of [ Ru(bpy)3]2+ i n […]
acetonitrile is evaluated at 0.077.[5] Singlet oxygen quantum yield of [ Ru(bpy)3]2+ i n […]
acetonitrile is evaluat ed at 0.77.[6]
Time-resolved experiments were performed using for excitation: a pulsed laser diode […]
emitting at 407 nm (LDH-P-C-400M, FWHM < 70 ps, 1 MHz) coupled with a driver […]
PDL 800- D (both PicoQuant GmbH, BERLIN, Germany) and for detection: an […]
avalanch e photodiode SPCM-AQR-15 (EG & G, VAUDREUIL, Can ada) coupled with […]
a 650 nm long- wav e p ass filter as det ection system. The acquisition was p erformed by […]
a PicoHarp 300 module with a 4 channels router PHR-800 (both PicoQuant GmbH, […]
BERLIN, Germany ). Th e fluores cence decays were recorded using the single photon […]
counting method. Data were collected up to 1000 counts accumulated in the maximum […]
channel and analyzed using Time Correlated Single Photon Counting (TCSPC) […]
software Fluofit (PicoQuant GmbH, BERLIN, Germany) based on iterative reconvolution using a Levensberg- M arquandt alg oritm, enabling the obtention of multi-exponential profiles (m ainly one or two exponenti als in our cases ). […]

Data set [6] deals with mouse colon adenocarcinoma (CT26) cells. Kind of data set: Resazurin cell viability assay, (photo)cytotoxicity, normoxia. Type of data set: cell-based. The settings on record: for IC50: Mus musculus, normoxia. As to the method:
Given that most ICD studies focus on breast, non‐small cell lung carcinoma, and colon cancer, and since ICD was first discovered in mouse colon cancer cells (CT26), we initially tested our compounds on CT26 cells. Cells were incubated with nine different concentrations (mainly from 0.01 to 100 µM) of the compounds for 4 h in the dark. Then, the diluted solutions containing the compounds were replaced by fresh medium, and the cells were either illuminated or kept in the dark for 1 h more. After 2 days, IC50 values (concentration of the agent inhibiting cell growth by 50%) were determined with the resazurin assay, using chlorin e6 (Ce6) and protoporphyrin IX (PpIX) for comparison (Figure S10). The clinically approved chlorin mixture Radachlorin contains ∼80% Ce6, while 5‐aminolevulinic acid (Ameluz and Levulan) and methyl 5‐aminolevulinate (Metvix and Metvixia) serve as precursors of PpIX. Therefore, Ce6 and PpIX were used for comparison purposes.
(100 U ml−1), streptomycin (100 U ml−1), and 1% L-glutamine. […]
All cells were incubated at 37 °C in a humidified atmosphere with 5 % CO2.
as §2

For data set [7] the following is noted: standard, in acetonitrile; cited from earlier work.

Where two headings read alike, the source gives them in different places. A value given as a limit tells only on which side of the number the result lay.

In the case of `N.N.[Cl][Pt][Cl]` [Cisplatin], the Tumor growth entry in data set [1] is reported as “Almost no inhibition”. In data set [2], the “Concentration at which approximately 5% of the cells remained alive (IC95)” value was found to be 600 µM. In data set [3], the “Concentration corresponding to approximately 5% cell survival” value came out at 500 µM.

For the compound `Cc1cc(O)c2c(=O)c3c(O)cc(O)c4c5c(O)cc(O)c6c(=O)c7c(O)cc(C)c8c1c2c(c34)c(c78)c65` [Hypericin], the IC50 in data set [4] came out at 1.66 ± 0.18 µM.

Consider `O=C1[O][Pt]2([NH][C@@H]3CCCC[C@H]3[NH]2)[O]C1=O` [Oxaliplatin], for which the Tumor growth result in data set [1] was “partial suppression”. Also, the “Concentration corresponding to approximately 5% cell survival” value in data set [3] is reported as 1400 µM.

Take `C=CC1=C(C)c2cc3[nH]c(cc4nc(cc5[nH]c(cc1n2)c(C)c5CCC(=O)O)C(CCC(=O)O)=C4C)c(C)c3C=C` [PpIX, protoporphyrin IX]: in data set [5], the Fluorescence lifetime is listed as 12.1 ns, the Fluorescence quantum yield turned out to be 0.05 and the “Singlet oxygen quantum yield” value worked out at 0.77. For the same compound, the IC50 in data set [4] worked out at 4.41 ± 0.09 µM. The “PI (phototoxicity index, IC50 dark/IC50 light)” value in data set [6] (CT26, 620 nm) is more than 110. The IC50 in data set [6] (CT26, CT26, dark, read-out: IC50 Dark) is more than 100000 nM. Moreover, the IC50 in data set [6] (CT26, light or radiation study, 1 h, CT26, 620 nm, 1.88 mW/cm^2, 60 min, read-out: IC50 620 nm (1 h, 6.75 J/cm^2)) worked out at 910 ± 100 nM.

For `[Ru+2].c1ccc(-c2ccccn2)nc1.c1ccc(-c2ccccn2)nc1.c1ccc(-c2ccccn2)nc1` [[Ru(bpy)3]2+], in data set [7], the Fluorescence quantum yield is given as 0.077 and the “Singlet oxygen quantum yield” value is 0.77.
